Entries after “also recorded” stand apart in the source; their conditions may differ. Marks after values point to notes of the source that are not given here.
Legend:
[1] = target: VEGFR3 (Homo sapiens, UniProt P35916); assay: Cell-free kinase assay VEGFR3; assay type: biochemical
[2] = tested on: p-SRC and PD-L1 expression in H460 and A549 cells; assay: Western blot / RT-PCR of p-SRC and PD-L1 expression in NSCLC cell lines; assay type: cell-based, human
Method: Cells were treated with the indicated concentrations and washed twice with cold PBS. Whole cell extracts were collected in RIPA lysis buffer (Santa Cruz Biotechnology, Germany), and protein concentration of the lysates was measured using a BCA Protein Assay Kit (ThermoFisher, USA). The protein samples were electrophoresed through a 10% SDS-PAGE gel and transferred to a polyvinylidene difluoride (PVDF) membrane (Roche, USA). After blocking, membranes were probed with primary antibodies (1:1000) against SRC, p-SRC, PD-L1, GAPDH, 0-tubulin (Cell Signaling Technology, USA) followed by washing and incubation with a secondary antibody (1:5000) conjugated to horseradish peroxidase (Santa Cruz Biotechnology, USA). Protein bands were visualized by applying a chemiluminescent reagent (Pierce ECL kit, Thermo Fisher Scientific, USA) and protein level were quantified by Image Lab (Bio-Rad Laboratory, USA).
Total cellular RNA was extracted by Trizol (Invitrogen, USA) for mRNA analysis. RNA was reverse-transcribed to cDNA profile through using the Transcriptor First Strand cDNA Synthesis kit (Roche Applied Science, USA) and then Real time PCR reactions were performed using the FastStart SYBR Green Master (ROX) reagent (Roche Applied Science, USA) according to the manufacturer's instructions. […]

[3] = tested on: F317L/T315I orthotopic tumor model; assay: In vivo efficacy, F317L/T315I orthotopic tumor model; set-up: species or system mouse; conditions: ABL001 60 mg/kg, Ponatinib 20 mg/kg, HQP1351 20 mg/kg
Method: (§1) In vivo efficacy was evaluated using the syngeneic mouse model derived from BaF3 cells with T315I and/or compound mutations. Tumor models were established by intravenously injecting tumor cells (1×10^5/mouse) into the caudal vein under sterile conditions. Mice were randomized into control and treatment groups with 8-10 mice per group and start the treatment from the second day post inoculation. The animal body weights were measured twice a week. The antitumor activity curves of test articles were plotted with the treatment time (day) on the X-axis, and corresponding survival rate on the Y-axis. A Log-rank (Mental-cox) test was employed to analyze the statistical significance of any difference between the treatment group and the control group. Prism version 7 (GraphPad Software Inc., San Diego, CA) was used for all statistical analysis and for graphic presentation.

[4] = tested on: PD-L1 in RCC cells; assay: PD-L1 expression in RCC cells; assay type: cell-based
[5] = target: BaF3(Bcr-Abl) V299L-F39V (Homo sapiens, UniProt P00519, V299L/F359V, cells depend on it); conditions: read-out: Anti-proliferation (IC50)
Method: (§2) The anti-proliferative effect was determined by a water-soluble tetrazolium (WST)-based assay using Cell Counting Kit-8 (CCK-8, #D3100L4057, Shanghai life ilab bio technology co., LTD, China). Cells were seeded in 96-well plates and treated with different concentrations of test articles. […] Each treatment was tested in triplicates. The plate was then cultured at 37° C. with 5% CO2 for 72 hours. At the end of treatments, 20 μl/well of CCK-8 reagent was directly added to each wells. The plate was then incubated at 37° C. with 5% CO2 for 2-4 h. The OD value was detected at 450 nm on a microplate reader (SpectraMax I3X, Molecular Devices, US). IC50 values were calculated with Graphpad Prism 7.0 software using nonlinear regression (curve fitting) type data analysis. For combination effect assay, the cells viability was normalized using the mean OD value of triplicated wells for the single agent control.

[6] = target: BaF3(Bcr-Abl) F359V (Homo sapiens, UniProt P00519, F359V, cells depend on it); conditions: read-out: Anti-proliferation (IC50)
Method: as §2

[7] = target: BaF3(Bcr-Abl) T315I-M351T (Homo sapiens, UniProt P00519, T315I/M351T, cells depend on it); conditions: read-out: Anti-proliferation (IC50)
Method: as §2

[8] = target: BaF3(Bcr-Abl) Wild-type (Homo sapiens, UniProt P00519); conditions: read-out: Anti-proliferation (IC50)
Method: as §2

[9] = target: BaF3(Bcr-Abl) F317L-F359V (Homo sapiens, UniProt P00519, F317L/F359V, cells depend on it); conditions: read-out: Anti-proliferation (IC50)
Method: as §2

[10] = target: BaF3(Bcr-Abl) T315I-G250E (Homo sapiens, UniProt P00519, G250E/T315I, cells depend on it); conditions: read-out: Anti-proliferation (IC50)
Method: as §2

[11] = target: BaF3(Bcr-Abl) F317L (Homo sapiens, UniProt P00519, F317L, cells depend on it); conditions: read-out: Anti-proliferation (IC50)
Method: as §2

[12] = target: BaF3(Bcr-Abl) T315I-F359V (Homo sapiens, UniProt P00519, T315I/F359V, cells depend on it); conditions: read-out: Anti-proliferation (IC50)
Method: as §2

[13] = tested on: RANCA; assay: Antiproliferative activity in RCC line RANCA; assay type: cell-based; conditions: Mus musculus; murine RCC line RANCA
[14] = tested on: human umbilical vein endothelial cells; assay: Antiproliferative effects on human umbilical vein endothelial cells; assay type: cell-based
[15] = tested on: VEGFR, SRC, Akt and extracellular signal-regulated kinases in vascular endothelial cells; assay: Phosphorylation of VEGFR, SRC and downstream proteins in vascular endothelial cells; assay type: cell-based
[16] = tested on: Ph+ ALL SUP-B15 cells; assay: Cell viability assay (Cell-Titer Glo) in leukemia cell lines; assay type: cell-based; conditions: 72 hours
Method: After treatment, cell viability was measured by Promega© Cell-Titer Glo®3D Cell Viability Assay luminescence assay kit according to instructions from the manufacturer (Promega, Madison, WI, USA, Cat #G7571). Luminescence signal was detected using a BioTek Synergy H1 Hybrid Multi-Mode (Microplate) Reader (BioTek, Shanghai). Cellular proliferative (i.e. viability) curves were plotted and anti-proliferation IC50 values were calculated using Graphpad Prism version 6.0 software (GraphPad Software, San Diego, CA USA).

[17] = target: VEGFR2 (Homo sapiens, UniProt P35968); assay: Cell-free kinase assay VEGFR2; assay type: biochemical
[18] = target: T1, BCR-ABL single or compound mutations (BaF3 cells) (Homo sapiens, UniProt P00519, cells depend on it, form not given); assay: Cell based anti-proliferation studies, BaF3 cells with BCR-ABL single or compound mutations (summary); set-up: species or system murine
T1 construct: fused on or other part: P11274 (Breakpoint cluster region protein)
Method: as §2
A series of cell lines expressing BCR-ABL single or compound mutations were constructed based on BaF3 murine pro-B cell line.

[19] = tested on: Y253H/T315I orthotopic tumor model; assay: In vivo efficacy, Y253H/T315I orthotopic tumor model; set-up: species or system mouse; conditions: ABL001 60 mg/kg, Ponatinib 20 mg/kg, HQP1351 20 mg/kg
Method: as §1

[20] = tested on: E255V/T315I orthotopic tumor model; assay: In vivo efficacy, E255V/T315I orthotopic tumor model; set-up: species or system mouse; conditions: ABL001 60 mg/kg, Ponatinib 20 mg/kg, HQP1351 20 mg/kg
Method: as §1

[21] = tested on: RANCA tumor tissues; assay: Tumor-infiltrating lymphocyte assays in RANCA tumor tissues; assay type: in vivo, mouse
[22] = tested on: T315I orthotopic tumor model; assay: In vivo efficacy, T315I orthotopic tumor model; set-up: species or system mouse; conditions: ABL001 60 mg/kg, Ponatinib 20 mg/kg, HQP1351 20 mg/kg
Method: as §1

[23] = target: VEGFR1 (Homo sapiens, UniProt P17948); assay: Cell-free kinase assay VEGFR1; assay type: biochemical

Cc1ccc(C(=O)Nc2ccc(CN3CCN(C)CC3)c(C(F)(F)F)c2)cc1C#Cc1cnc2[nH]ncc2c1 [HQP1351, 3-(2-(1H-pyrazolo[3,4-b]pyridin-5-yl)ethynyl)-4-methyl-N-(4-((4-methylpiperazin-1-yl)methyl)-3-(trifluoromethyl)phenyl)-benzamide]
IC50 [1]: 4.1 nM | PD-L1 and p-SRC levels at different time points ([2]; 2 μM HQP-1351): time-dependent suppression of PD-L1 and p-SRC levels | PD-L1 expression and p-SRC phosphorylation, differing concentrations ([2]; NSCLC cell lines, 24 h, Western blot): decreased PD-L1 expression as well as p-SRC phosphorylation in a concentration-dependent manner | Median survival [3]: 25.0****^$ | Survival prolongation (%) [3]: 42.86% | Survive/Total @ 24 [3]: 0/8 | Expression of PD-L1 in RCC cells [4]: reduced expression of PD-L1 | GI50 [5]: 32 ± 4 nM | GI50 [6]: 50 ± 16 nM | GI50 [7]: 67 ± 44 nM | GI50 [8]: 6 nM | GI50 [9]: 25 ± 13 nM | GI50 [10]: 33 ± 2 nM | GI50 [11]: 8 ± 3 nM | GI50 [12]: 20 ± 10 nM | IC50 [13]: 141 nM | Antiproliferative effects compared to lenvatinib [14]: more potent antiproliferative effects | Phosphorylation of VEGFR, SRC, and downstream proteins Akt and extracellular signal-regulated kinases [15]: inhibiting phosphorylation of VEGFR, SRC, and downstream proteins | Proliferation of Ph+ leukemia cells including SUP-B15 [16]: selectively inhibited the proliferation of Ph+ cells; also recorded: potently inhibits the proliferation | IC50 [17]: 6.1 nM | Anti-proliferative effectiveness against compound mutations compared with other TKIs ([18]; BCR-ABL compound mutations): more effective than ponatinib, asciminib and other TKIs | GI50 ([18]; read-out: IC50 values toward BCR-ABL single or compound mutations, range over BaF3 BCR-ABL mutant cell lines): 6 to 300 nM | Median survival [19]: 18.5 | Survival prolongation (%) [19]: 8.82% | Survive/Total @ 24 [19]: 0/8 | Median survival [20]: 27.0**** | Survival prolongation (%) [20]: 28.57% | Survive/Total @ D26 [20]: 0/10 | Immune cell numbers in RANCA tumor tissues [21]: increased numbers of cytotoxic T cells (CTL, CD8^+) and natural-killer cells | Median survival [22]: 27.0**** | Survival prolongation (%) [22]: 28.57% | Survive/Total @ D43 [22]: 0/10 | IC50 [23]: 4.2 nM
